# Laboratory results as given in US20240124436A1 (priority 2019, published 2024).
# Like-named read-outs stand apart in the source and are kept apart here.
# Test system: pathogens of rice blast
# Type: cell-based
# Details: 25° C., 6 days, elongation length of hyphae
smiles,measurement,setting,value
"COc1nc(-c2nccs2)nc(F)c1C(F)(F)F [Example 3, 6-fluoro-4-methoxy-2-(2-thiazolyl)-5-(trifluoromethyl)pyrimidine]",Control value,"test solution 1000 ppm, 1,000 μl on oatmeal culture medium",68
same,Control value,"test solution 2000 ppm, 1,000 μl on oatmeal culture medium",100
